# Numbered stars: 1 amine (or outer) side, 2 acyl side, 3 side chain; on linkers, the order of the positions; unused ones are H or OH. Bridge positions count the residues as written; N and C are the ends. Square brackets hold non-standard residues; d marks the D form. Peptide text beside a SMILES is read from it. * marks the point of attachment. C20 diacid = O=C(O)CCCCCCCCCCCCCCCCCCC(=O)*; γGlu = O=C(O)[C@H](CCC(=O)[*:2])N[*:1]; Hyp = O=C(O)[C@@H]1C[C@@H](O)CN1; NMeI = CC[C@H](C)[C@H](NC)C(=O)O; Sar = CNCC(=O)O
# Columns and labels:
# [1] = biological target: T1, recombinant human calcitonin receptor (hCT-R) (Homo sapiens, UniProt P30988); test: hCT-R cAMP assay (AlphaScreen) in 1321N1 cells; format: cell-based; conditions: cAMP formation, 45 min stimulation
# T1 construct: host or cells: human astrocytoma cell line 1321N1
# T1 sequence (P30988 25-474): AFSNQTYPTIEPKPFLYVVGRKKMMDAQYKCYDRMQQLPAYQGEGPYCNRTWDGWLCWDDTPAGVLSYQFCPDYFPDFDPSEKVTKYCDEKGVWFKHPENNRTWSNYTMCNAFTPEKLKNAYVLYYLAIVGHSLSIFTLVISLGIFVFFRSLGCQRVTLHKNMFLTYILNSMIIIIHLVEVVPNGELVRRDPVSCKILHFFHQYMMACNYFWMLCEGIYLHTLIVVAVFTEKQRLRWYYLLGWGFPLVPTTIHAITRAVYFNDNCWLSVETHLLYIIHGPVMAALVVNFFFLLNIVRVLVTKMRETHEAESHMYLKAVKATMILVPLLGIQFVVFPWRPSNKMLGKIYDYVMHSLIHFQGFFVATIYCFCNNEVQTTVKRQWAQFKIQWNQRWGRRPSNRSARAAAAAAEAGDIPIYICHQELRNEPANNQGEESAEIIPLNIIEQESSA
# Summary of the method: (§1)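 EC50 values come from curve fits over at least 7 peptide concentrations, with cAMP read by AlphaScreen competition after 1 h in the dark. Cells were 1321N1 lines carrying human calcitonin receptor, with RAMP3 co-expressed for AMY3, treated 45 min at room temperature in the presence of IBMX.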
# [2] = biological target: T2, recombinant human amylin 3 receptor (hAMYR3) (Homo sapiens, UniProt O60896+P30988); test: hAMYR3 cAMP assay (AlphaScreen) in 1321N1 cells; format: cell-based; conditions: cAMP formation, 45 min stimulation
# T2 construct: host or cells: human astrocytoma cell line 1321N1
# T2 sequence (P30988 25-474): T1 sequence (P30988 25-474)
# T2 sequence (O60896 24-148 partner): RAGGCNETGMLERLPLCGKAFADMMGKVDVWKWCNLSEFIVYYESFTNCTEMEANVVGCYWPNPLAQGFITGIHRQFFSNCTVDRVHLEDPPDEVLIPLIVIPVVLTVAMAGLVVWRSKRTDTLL
# Summary of the method: as §1
# [3] = Assessment of chemical stability in 40 mM buffers at 40° C. (RP-HPLC); format: physicochemical; conditions: 1 mg/mL; for % degradation after 14 days at 40° C. pH4 acetate: acetate buffer pH 4, 14 days; for % degradation after 14 days at 40° C. pH6 phosphate: phosphate buffer pH 6, 14 days
# Description: Samples of each test peptide were dissolved in acetate buffer pH 4 and phosphate buffer pH 6 and 7 (all buffer 40 mM). The final peptide concentration was 1 mg/mL. Samples were placed in glass vials and incubated at 40° C. The samples were analyzed by RP-HPLC on a C8 column with gradient elution using a trifluoroacetic acid/acetonitrile/water eluent system. The area-percentage (area-%) of the main peak was determined by UV spectroscopy at 220 nm at each sampling time point.
# The % degradation was calculated by subtracting the […].
# The results of the chemical stability assessment after 3 days of incubation time are summarized as % degradation in Table 1 (below).
# The results of the chemical stability assessment after 14 days of incubation time are summarized as % degradation in Table 2 (below).
EC50 [1] [nM],EC50 [2] [nM],% degradation after 14 days at 40° C. pH4 acetate [3] [%],% degradation after 14 days at 40° C. pH6 phosphate [3] [%],"% degradation after 14 days at 40° C. pH7 phosphate ([3]; phosphate buffer pH 7, 14 days) [%]",SMILES
0.019,0.003,<1,4.6,–,"CC[C@H](C)[C@@H](C(=O)N[C@@H](CC(C)C)C(=O)N[C@@H](CO)C(=O)N[C@@H](CO)C(=O)N[C@H](C(=O)N[C@@H](CCC(=O)O)C(=O)N[C@H](C(=O)NCC(=O)N[C@@H](CO)C(=O)N[C@@H](CC(N)=O)C(=O)N[C@H](C(=O)N1C[C@H](O)C[C@H]1C(N)=O)[C@@H](C)O)C(C)C)[C@@H](C)O)N(C)C(=O)[C@H](C)NC(=O)CN(C)C(=O)[C@H](Cc1ccccc1)NC(=O)[C@H](CO)NC(=O)[C@H](CO)NC(=O)[C@H](CCCNC(=N)N)NC(=O)[C@H](CCC(N)=O)NC(=O)[C@H](CC(C)C)NC(=O)[C@H](Cc1ccccc1)NC(=O)[C@H](Cc1c[nH]cn1)NC(=O)[C@H](C)NC(=O)[C@H](CC(C)C)NC(=O)[C@H](CCCNC(=N)N)NC(=O)[C@H](CCC(=O)O)NC(=O)[C@@H](NC(=O)[C@H](C)NC(=O)[C@@H]1CSSC[C@H](NC(=O)[C@H](CCCNC(=N)N)NC(=O)CC[C@H](NC(=O)CCCCCCCCCCCCCCCCCCC(=O)O)C(=O)O)C(=O)NCC(=O)N[C@@H]([C@@H](C)O)C(=O)N[C@@H](C)C(=O)N[C@@H]([C@@H](C)O)C(=O)N1)[C@@H](C)O [Ref. 2, [19CD]-isoGlu-RC()GTATC()ATERLAHFLQRSSF-Sar-A-Ile(Me)-LSSTEVGSNT-Hyp-NH2, reference compound] ({C20 diacid-γGlu}-RCGTATCATERLAHFLQRSSF[Sar]A[NMeI]LSSTEVGSNT[Hyp]-NH2; disulfide 2-7)"
0.386,0.108,2.2,<1,2.6,"CC[C@H](C)[C@@H](C(=O)N[C@@H](CC(C)C)C(=O)N[C@@H](CO)C(=O)N[C@@H](CO)C(=O)N[C@H](C(=O)N[C@@H](CCC(=O)O)C(=O)N[C@H](C(=O)NCC(=O)N[C@@H](CO)C(=O)N[C@@H](CC(N)=O)C(=O)N[C@H](C(=O)N1C[C@H](O)C[C@H]1C(N)=O)[C@@H](C)O)C(C)C)[C@@H](C)O)N(C)C(=O)[C@H](C)NC(=O)CN(C)C(=O)[C@H](Cc1ccccc1)NC(=O)[C@H](CO)NC(=O)[C@H](CO)NC(=O)[C@H](CCCNC(=N)N)NC(=O)[C@H](CCC(N)=O)NC(=O)[C@H](CC(C)C)NC(=O)[C@H](Cc1ccccc1)NC(=O)[C@H](Cc1c[nH]cn1)NC(=O)[C@H](C)NC(=O)[C@H](CC(C)C)NC(=O)[C@H](CCCNC(=N)N)NC(=O)[C@H](CCC(=O)O)NC(=O)[C@@H](NC(=O)[C@H](C)NC(=O)[C@@H]1CCCCNC(=O)C[C@H](NC(=O)[C@H](CCCNC(=N)N)NC(=O)CC[C@H](NC(=O)CCCCCCCCCCCCCCCCCCC(=O)O)C(=O)O)C(=O)NCC(=O)N[C@@H]([C@@H](C)O)C(=O)N[C@@H](C)C(=O)N[C@@H](CO)C(=O)N1)[C@@H](C)O [Compound 14, [19CD]-isoGlu-RD()GTASK()ATERLAHFLQRSSF-Gly(Me)-A-Ile(Me)-LSSTEVGSNT-Hyp-NH2] ({C20 diacid-γGlu}-RDGTASKATERLAHFLQRSSF[Sar]A[NMeI]LSSTEVGSNT[Hyp]-NH2; lactam 2-7)"

# Source: US11382956B2, “Amylin analogues” (Zealand Pharma A/S, priority 2016, dated 2022)
